Test results as given in US20170198006A1, “PRMT5 INHIBITORS AND USES THEREOF” (Epizyme, Inc., priority 2014, published 2017).

Columns and labels:
PRMT5/MEP50 = molecular target: T1, PRMT5/MEP50 (Homo sapiens, UniProt O14744); test: PRMT5 Biochemical Assay (PRMT5/MEP50 enzyme assay on histone H4 peptide substrate, 3H-SAM Flashplate); conditions: PRMT5 biochemical assay; read-out: Biochemical IC50
T1 construct: Flag-PRMT5; made in house; host or cells: Spodoptera frugiperda (SF9), baculovirus
In short: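 Sf9-expressed Flag-PRMT5/6His-MEP50 preincubated with compound 30 min at 25 °C, then methylation of biotinylated H4 1-15 peptide started with ³H-SAM in 20 mM Bicine pH 7.6, 1 mM TCEP, 0.005% BSG, 0.002% Tween20.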

[1] = test system: symmetric di-methyl arginine in Z-138 cells; test: Z-138 Methylation Assay (In Cell Western for symmetric di-methyl arginine and DNA content); assay type: cell-based; conditions: Homo sapiens, read-out: ICW EC50
Source text: Z-138 suspension cells were purchased from ATCC (American Type Culture Collection, Manassas, Va.). RPMI/Glutamax medium, penicillin-streptomycin, heat inactivated fetal bovine serum, and D-PBS were purchased from Life Technologies, Grand Island, N.Y., USA. Odyssey blocking buffer, 800CW goat anti-rabbit IgG (H+L) antibody, and Licor Odyssey infrared scanner were purchased from Licor Biosciences, Lincoln, Nebr., USA. Symmetric di-methyl arginine antibody was purchased from EMD Millipore, Billerica, Mass., USA. 16% Paraformaldehyde was purchased from Electron Microscopy Sciences, Hatfield, Pa., USA.
Z-138 suspension cells were maintained in growth medium (RPMI 1640 supplemented with 10% v/v heat inactivated fetal bovine serum and 100 units/mL penicillin-streptomycin) and cultured at 37° C. under 5% CO2.
Cell Treatment, in Cell Western (ICW) for Detection of Symmetric Di-Methyl Arginine and DNA Content.
Z-138 cells were seeded in assay medium at a concentration of 50,000 cells per mL to a 384-well cell culture plate with 50 μL per well. Compound (100 nL) from 384 well source plates was added directly to 384 well cell plate. Plates were incubated at 37° C., 5% CO2 for 96 hours. After four days of incubation, 40 μL of cells from incubated plates were added to poly-D-lysine coated 384 well culture plates (BD Biosciences 356697). Plates were incubated at room temperature for 30 minutes then incubated at 37° C., 5% CO2 for 5 hours. After the incubation, 40 μL per well of 8% paraformaldehyde in PBS (16% paraformaldahyde was diluted to 8% in PBS) was added to each plate and incubated for 30 minutes. Plates were transferred to a Biotek 405 plate washer and washed 5 times with 100 μL per well of wash buffer (1×PBS with 0.1% Triton X-100 (v/v)). Next 30 μL per well of Odyssey blocking buffer were added to each plate and incubated 1 hour at room temperature. Blocking buffer was removed and 20 μL per well of primary antibody was added (symmetric di-methyl arginine diluted 1:100 in Odyssey buffer with 0.1% Tween 20 (v/v)) and plates were incubated overnight (16 hours) at 4° C. Plates were washed 5 times with 100 μL per well of wash buffer. Next 20 μL per well of secondary antibody was added (1:200 800CW goat anti-rabbit IgG (H+L) antibody, 1:1000 DRAQ5 (Biostatus limited) in Odyssey buffer with 0.1% Tween 20 (v/v)) and incubated for 1 hour at room temperature. The plates were washed 5 times with 100 μL per well wash buffer then 1 time with 100 μL per well of water. Plates were allowed to dry at room temperature then imaged on the Licor Odyssey machine which measures integrated intensity at 700 nm and 800 nm wavelengths. Both 700 and 800 channels were scanned.
First, the ratio for each well was determined by:
Each plate included fourteen control wells of DMSO only treatment (minimum inhibition) as well as fourteen control wells for maximum inhibition treated with 3 μM of a reference compound (Background wells). The average of the ratio values for each control type was calculated and used to determine the percent inhibition for each test well in the plate. Reference compound was serially diluted three-fold in DMSO for a total of nine test concentrations, beginning at 3 μM. Percent inhibition was determined and IC50 curves were generated using triplicate wells per concentration of compound.

Z-138 cells = test: Z-138 Proliferation Assay (Cell Titer Glo, 5 days); assay type: cell-based; conditions: Homo sapiens, 120 h
Source text: Z-138 Proliferation Assay
Z-138 suspension cells were purchased from ATCC (American Type Culture Collection, Manassas, Va.). RPMI/Glutamax medium, penicillin-streptomycin, heat inactivated fetal bovine serum were purchased from Life Technologies, Grand Island, N.Y., USA. V-bottom polypropylene 384-well plates were purchased from Greiner Bio-One, Monroe, N.C., USA. Cell culture 384-well white opaque plates were purchased from Perkin Elmer, Waltham, Mass., USA. Cell-Titer Glo® was purchased from Promega Corporation, Madison, Wis., USA. SpectraMax M5 plate reader was purchased from Molecular Devices LLC, Sunnyvale, Calif., USA.
Z-138 suspension cells were maintained in growth medium (RPMI 1640 supplemented with 10% v/v heat inactivated fetal bovine serum and cultured at 37° C. under 5% CO2. Under assay conditions, cells were incubated in assay medium (RPMI 1640 supplemented with 10% v/v heat inactivated fetal bovine serum and 100 units/mL penicillin-streptomycin) at 37° C. under 5% CO2.
For the assessment of the effect of compounds on the proliferation of the Z-138 cell line, exponentially growing cells were plated in 384-well white opaque plates at a density of 10,000 cells/ml in a final volume of 50 μl of assay medium. A compound source plate was prepared by performing triplicate nine-point 3-fold serial dilutions in DMSO, beginning at 10 mM (final top concentration of compound in the assay was 20 μM and the DMSO was 0.2%). A 100 nL aliquot from the compound stock plate was added to its respective well in the cell plate. […] After addition of compounds, assay plates were incubated for 5 days at 37° C., 5% CO2, relative humidity >90%.
Cell viability was measured by quantitation of ATP present in the cell cultures, adding 35 μl of Cell Titer Glo® reagent to the cell plates. Luminescence was read in the SpectraMax M5 microplate reader. The concentration of compound inhibiting cell viability by 50% was determined using a 4-parametric fit of the normalized dose response curves.

T1 sequence (O14744 with tags, fused parts or gaps): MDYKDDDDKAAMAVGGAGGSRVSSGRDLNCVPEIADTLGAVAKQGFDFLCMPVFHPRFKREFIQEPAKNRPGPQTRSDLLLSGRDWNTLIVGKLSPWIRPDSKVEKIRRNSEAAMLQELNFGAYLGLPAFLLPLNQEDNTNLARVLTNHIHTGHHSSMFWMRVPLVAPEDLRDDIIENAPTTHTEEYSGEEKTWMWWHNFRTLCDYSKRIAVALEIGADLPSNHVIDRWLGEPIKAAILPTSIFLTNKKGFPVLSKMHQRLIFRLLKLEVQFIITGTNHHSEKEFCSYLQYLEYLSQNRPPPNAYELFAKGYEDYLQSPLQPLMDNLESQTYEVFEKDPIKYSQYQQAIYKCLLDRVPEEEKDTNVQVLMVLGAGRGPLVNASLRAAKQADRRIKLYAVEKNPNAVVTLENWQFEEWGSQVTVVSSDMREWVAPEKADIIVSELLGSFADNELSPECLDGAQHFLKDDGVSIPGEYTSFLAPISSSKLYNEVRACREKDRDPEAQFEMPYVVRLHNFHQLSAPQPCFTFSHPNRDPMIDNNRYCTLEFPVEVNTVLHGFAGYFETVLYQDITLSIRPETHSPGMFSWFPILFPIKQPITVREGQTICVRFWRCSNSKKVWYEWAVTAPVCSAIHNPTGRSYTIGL
T1 sequence (Q9BQA1 with tags, fused parts or gaps partner limits assumed): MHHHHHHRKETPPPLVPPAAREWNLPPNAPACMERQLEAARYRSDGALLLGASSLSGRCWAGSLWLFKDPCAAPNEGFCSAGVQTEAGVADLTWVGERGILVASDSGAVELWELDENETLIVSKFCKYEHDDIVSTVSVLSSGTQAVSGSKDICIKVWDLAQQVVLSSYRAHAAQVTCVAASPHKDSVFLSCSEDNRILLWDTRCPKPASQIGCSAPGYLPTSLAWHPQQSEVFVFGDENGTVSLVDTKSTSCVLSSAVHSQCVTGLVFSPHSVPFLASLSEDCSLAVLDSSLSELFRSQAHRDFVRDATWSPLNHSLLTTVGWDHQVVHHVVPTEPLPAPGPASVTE

Structure (SMILES)	IC50 (PRMT5/MEP50)	EC50 [1]	EC50 (Z-138 cells)
COc1ccc(Cn2c(CN3CCCCC3)cnc2CN)cc1 [Compound 4-13]	10000 to 50000 nM	> 1000 nM	> 5000 nM
CN(C)c1cccc2c(S(=O)(=O)NC3CC(=O)N(c4ccccc4F)C3)cccc12 (stereo not drawn) [Compound 5-4]	< 100 nM	101 to 1000 nM	1000 to 10000 nM
CN(C)c1cccc2c(S(=O)(=O)NC[C@@H](N)Cc3ccccc3)cccc12 [Compound 5-7, (S)—N-(2-amino-3-phenylpropyl)-5-(dimethylamino)naphthalene-1-sulfonamide]	< 100 nM	101 to 1000 nM	1000 to 10000 nM
CN1CCC(Nc2ccnc(C(=O)NC[C@H](O)CN3CCc4ccccc4C3)c2)CC1 [Compound 5-9]	< 100 nM	< 100 nM	> 5000 nM
CC(=O)N1CC(Nc2cc(C(=O)NC[C@H](O)CN3Cc4ccccc4C3)ncn2)C1 [Compound 5-11]	< 100 nM	101 to 1000 nM	1000 to 10000 nM
CC(=O)N1CC(Nc2cc(C(=O)NCC(C)(O)CN3CCc4ccccc4C3)ncn2)C1 (stereo not drawn) [Compound 6-9]	101 to 1000 nM	101 to 1000 nM	> 5000 nM
O=C(NC[C@H](O)CN1Cc2ccccc2C1)c1cncc(NC2CCN(CC(F)(F)F)CC2)c1 [Compound 6-11]	101 to 1000 nM	101 to 1000 nM	10000 to 50000 nM
NCc1nccn1Cc1cccc(Br)c1 [Compound 6-13]	10000 to 50000 nM	> 1000 nM	> 5000 nM
CN(C)c1cccc2c(S(=O)(=O)NC3CC(=O)N(c4ccccc4N)C3)cccc12 (stereo not drawn) [Compound 7-4]	< 100 nM	< 100 nM	1000 to 10000 nM
CC(=O)N1CC(Nc2cc(C(=O)NC[C@@H](O)CN3CCc4ccccc4C3)ncn2)C1 [Compound 7-9]	< 100 nM	< 100 nM	1000 to 10000 nM
O=C(NC[C@H](O)CN1Cc2ccccc2C1)c1cncc(NC2CCOCC2)c1 [Compound 7-11]	101 to 1000 nM	101 to 1000 nM	1000 to 10000 nM
CN(C)c1cccc2c(S(=O)(=O)NC3CC(=O)N(c4ccccc4Cl)C3)cccc12 (stereo not drawn) [Compound 8-4]	101 to 1000 nM	1000 to 10000 nM	10000 to 50000 nM
CC(=O)N1CC(Nc2cc(C(=O)N(C)C[C@H](O)CN3CCc4ccccc4C3)ncn2)C1 [Compound 8-9]	101 to 1000 nM	< 100 nM	1000 to 10000 nM
O=C(NC[C@H](O)CN1Cc2ccccc2C1)c1cc(NC2COC2)nc(N2CCOCC2)n1 [Compound 8-11]	< 100 nM	< 100 nM	1000 to 10000 nM
CC(=O)N1CCC(Nc2cc(C(=O)N(C)C[C@H](O)CN3CCc4ccccc4C3)ncn2)CC1 [Compound 9-9]	< 100 nM	101 to 1000 nM	101 to 1000 nM
O=C(NC[C@H](O)CN1Cc2ccccc2C1)c1cncc(NC2CCN(CC(F)(F)F)C2)c1 (stereo partly drawn) [Compound 9-11]	101 to 1000 nM	101 to 1000 nM	> 20000 nM
CC(=O)N1CCC(Nc2cc(C(=O)N(C)C[C@H](O)CN3CCc4ccccc4C3)ccn2)CC1 [Compound 10-9]	< 100 nM	< 100 nM	101 to 1000 nM
CC(=O)N1CCC(Nc2cc(C(=O)NC(C)C(O)CN3CCc4ccccc4C3)ccn2)CC1 (stereo not drawn) [Compound 11-9]	< 100 nM	< 100 nM	101 to 1000 nM
CC(=O)N1CCC(Nc2cc(C(=O)NCC(C)(O)CN3CCc4ccccc4C3)ccn2)CC1 (stereo not drawn) [Compound 12-9]	< 100 nM	< 100 nM	1000 to 10000 nM
O=C(CC1NC(N2CCc3ccccc3C2)=NC1=O)Nc1ccc(Oc2ccccc2)cc1 (stereo not drawn) [Compound 12-14]	101 to 1000 nM	> 20000 nM	> 20000 nM
CC(=O)N1CCC(Nc2cc(C(=O)NC[C@@H](O)CN3CCc4ccccc4C3(C)C)ccn2)CC1 [Compound 13-9]	101 to 1000 nM	101 to 1000 nM	1000 to 10000 nM
CN(C)c1cccc2c(S(=O)(=O)NC3CCN(Cc4ccccc4)CC3)cccc12 [Compound 14-3]	< 100 nM	1000 to 10000 nM	> 20000 nM
O=C(NC[C@H](O)CN1CCc2ccccc2C1)c1cc(NC2CN(C(=O)C3CCC3)C2)ncn1 [Compound 14-9]	< 100 nM	< 100 nM	< 100 nM
CCOc1c(C)cc(S(=O)(=O)NCC2CCN(Cc3cc4cc(OC)ccc4nc3Cl)CC2)cc1C [Compound 15-3]	101 to 1000 nM	> 20000 nM	> 20000 nM
CCOC(=O)c1ccc(NC(=O)CC2NC(N3CCN(c4ccccc4)CC3)=NC2=O)cc1 (stereo not drawn) [Compound 20-14]	101 to 1000 nM	1000 to 10000 nM	> 20000 nM
O=C(CC1NC(N2CCN(Cc3ccccc3)CC2)=NC1=O)Nc1ccc(Cl)cc1 (stereo not drawn) [Compound 22-14]	101 to 1000 nM	> 20000 nM	> 20000 nM
Cn1cnc2ccc(-c3cccc(OCC(O)CN4CCc5ccccc5C4)c3)cc21 (stereo not drawn) [Compound 23-9]	< 100 nM	101 to 1000 nM	> 1000 nM
O=C(NC[C@@H](O)CN1CCc2ccccc2C1)c1cccc(NC2CCOCC2)c1 [Compound 24-9]	101 to 1000 nM	101 to 1000 nM	> 5000 nM
